The Ki is a measure of affinity in units of concentration, obtained from inhibition or displacement. Usually inhibition stands for the relative decrease from the control value, in per cent.

These results are taken from patent US8530648B2, “Diaza-spiro[5.5]undecanes” (Novartis AG, priority 2009, dated 2013).

Experiment [1] concerns the target hOx1R (Homo sapiens (Human), UniProt O43613). Kind of experiment: Calcium accumulation in cells (FLIPR), hOx1R. The experiment is classed as cell-based. To be noted: for Ki: inhibition of orexin A induced calcium accumulation, Cheng and Prusoff correction; for inhibition at 10 µM: measured at a concentration of 10 μM of compound. As to the method: (§1) Calcium Accumulation in Cells (FLIPR):
(§2) Cells expressing human orexin 1 or human orexin 2 receptors, were seeded at 8,000 cells/well in 384 well black-walled clear bottom, poly-D-lysine coated plates. After 24 h, the medium was removed and cells were washed once with phosphate buffered saline and serum-deprived overnight in assay buffer (130 mM NaCl, 5.4 mM KCl, 1.8 mM CaCl2, 0.8 mM MgSO4, 0.9 mM NaH2PO4, 25 mM glucose, 20 mM HEPES, pH 7.4) containing bovine serum albumin (1% w/v).
(§3) On the day of the experiment, the cells seeded in black plates were treated with assay buffer containing the Ca^2+ sensitive fluorescent dye Fluo-4-AM (2 μM), and probenecid (0.1 mM). After 1 h plates were washed twice with, and resuspended in, assay buffer containing probenecid (0.1 mM) using a multi plate washer. […] Fluorescence measurements were then continued every 1 S for 120 S followed by every 4 S for 240 S.
(§4) The measurements were typically made in two sequences:
(§5) Compounds of formula I were tested usually in a concentration range from 10^−9 M to 10^−5 M.
(§6) In the second round, performed one hour later (to allow for equilibration), Orexin A was tested either in the absence (calibration curves, Orexin A agonist controls) or in the presence of compounds of formula I to determine antagonism.

The target in experiment [2] is hOx2R (Homo sapiens (Human), UniProt O43614). Kind of experiment: Calcium accumulation in cells (FLIPR), hOx2R. It is filed as cell-based. Particulars: for Ki: inhibition of orexin A induced calcium accumulation, Cheng and Prusoff correction. The protocol:
as §1, §2, §3, §4, §5, §6

Chain of hOx2R (O43614 whole entry): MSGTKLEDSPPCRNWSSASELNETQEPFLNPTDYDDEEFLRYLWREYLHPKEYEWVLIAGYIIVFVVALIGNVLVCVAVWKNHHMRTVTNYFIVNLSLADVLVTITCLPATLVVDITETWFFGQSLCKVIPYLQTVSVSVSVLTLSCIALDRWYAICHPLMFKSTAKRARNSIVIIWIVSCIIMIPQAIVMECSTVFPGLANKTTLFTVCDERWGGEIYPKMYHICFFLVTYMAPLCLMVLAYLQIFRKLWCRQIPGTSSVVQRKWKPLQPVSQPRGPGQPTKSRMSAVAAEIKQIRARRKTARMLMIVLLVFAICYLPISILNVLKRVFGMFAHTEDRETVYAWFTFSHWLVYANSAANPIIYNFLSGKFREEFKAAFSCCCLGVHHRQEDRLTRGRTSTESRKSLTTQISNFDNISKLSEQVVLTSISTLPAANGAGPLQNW
Chain of hOx1R (O43613 whole entry): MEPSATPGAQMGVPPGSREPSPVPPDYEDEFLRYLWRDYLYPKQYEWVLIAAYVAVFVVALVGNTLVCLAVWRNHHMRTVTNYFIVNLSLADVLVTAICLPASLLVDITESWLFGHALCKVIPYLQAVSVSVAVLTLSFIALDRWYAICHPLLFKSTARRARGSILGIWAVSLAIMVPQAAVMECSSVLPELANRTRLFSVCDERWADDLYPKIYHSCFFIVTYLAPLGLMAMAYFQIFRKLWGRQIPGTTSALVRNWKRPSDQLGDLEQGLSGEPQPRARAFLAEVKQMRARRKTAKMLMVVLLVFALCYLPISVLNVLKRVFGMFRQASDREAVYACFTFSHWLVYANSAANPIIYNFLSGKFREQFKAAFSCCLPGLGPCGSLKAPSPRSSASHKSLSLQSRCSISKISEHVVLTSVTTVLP

For `N#Cc1ccc(F)c(CN2CCCC3(CCN(c4cnc5ccccc5n4)CC3)C2=O)c1` [Example 99, 4-fluoro-3-((1-oxo-9-(quinoxalin-2-yl)-2,9-diazaspiro[5.5]undecan-2-yl)methyl)benzonitrile], the values for the Ki in experiment [1] and in experiment [2] were 1.1 µM and 0.142 µM, respectively.
In the case of `N#Cc1ccc(CN2CCCC3(CCN(c4cnc5ccccc5n4)CC3)C2=O)cn1` [Example 100, 5-((1-oxo-9-(quinoxalin-2-yl)-2,9-diazaspiro[5.5]undecan-2-yl)methyl)picolinonitrile], the figures for the inhibition at 10 µM in experiment [1] and in experiment [2] (measured at a concentration of 10 μM of compound) were 29% and 13%, respectively.
Turning to `O=C1N(Cc2ccc(-c3ncccn3)cc2)CCCC12CCN(c1cnc3ccccc3n1)CC2` [Example 101, 2-(4-(pyrimidin-2-yl)benzyl)-9-(quinoxalin-2-yl)-2,9-diazaspiro[5.5]undecan-1-one], the Ki in experiment [1] amounted to 2.79 µM; in experiment [2] it was 1.38 µM.
`COc1cccc(CN2CCCC3(CCN(c4cnc5ccccc5n4)CC3)C2=O)c1F` [Example 102, 2-(2-fluoro-3-methoxybenzyl)-9-(quinoxalin-2-yl)-2,9-diazaspiro[5.5]undecan-1-one]: the Ki was 2.43 µM in experiment [1] and 0.225 µM in experiment [2].
On the same counts, the results for `O=C1N(Cc2cccc(N3CCCC3)n2)CCCC12CCN(c1cnc3ccccc3n1)CC2` [Example 103, 2-((6-(pyrrolidln-1-yl)pyridin-2-yl)methyl)-9-(quinoxalin-2-yl)-2,9-diazaspiro[5.5]undecan-1-one] are 2.49 µM and 1.19 µM.
For `Cc1cc(CN2CCCC3(CCN(c4cnc5ccccc5n4)CC3)C2=O)on1` [Example 105, 2-((3-methylisoxazol-5-yl)methyl)-9-(quinoxalin-2-yl)-2,9-diazaspiro[5.5]undecan-1-one], in experiment [1], the inhibition at 10 µM came to 47%. Further, in experiment [2], the Ki came out at 1.38 µM.
On the same counts, the results for `Cc1cc(C)nc(CN2CCCC3(CCN(c4cnc5ccccc5n4)CC3)C2=O)c1` [Example 106, 2-((4,6-dimethylpyridin-2-yl)methyl)-9-(quinoxalin-2-yl)-2,9-diazaspiro[5.5]undecan-1-one] are 35% and 1.36 µM.
Turning to `Cn1ncc2cccc(CN3CCCC4(CCN(c5cnc6ccccc6n5)CC4)C3=O)c21` [Example 107, 2-((1-methyl-1H-indazol-7-yl)methyl)-9-(quinoxalin-2-yl)-2,9-diazaspiro[5.5]undecan-1-one], the Ki came to 0.728 µM in experiment [1] and 0.115 µM in experiment [2].
On to `Cn1ncc2c(CN3CCCC4(CCN(c5cnc6ccccc6n5)CC4)C3=O)cccc21` [Example 108, 2-((1-methyl-1H-indazol-4-yl)methyl)-9-(quinoxalin-2-yl)-2,9-diazaspiro[5.5]undecan-1-one], for which the results for the Ki in experiment [1] and in experiment [2] were 1.4 µM and 0.196 µM, respectively.
For `Cc1nnc(-c2ccc(CN3CCCC4(CCN(c5cnc6ccccc6n5)CC4)C3=O)cc2)o1` [Example 109, 2-(4-(5-methyl-1,3,4-oxadiazol-2-yl)benzyl)-9-(quinoxalin-2-yl)-2,9-diazaspiro[5.5]undecan-1-one] the same measures were 3.14 µM and 1.24 µM.
For the molecule `O=C1N(Cc2cncn2-c2ccccc2)CCCC12CCN(c1cnc3ccccc3n1)CC2` [Example 110, 2-((1-phenyl-1H-imidazol-5-yl)methyl)-9-(quinoxalin-2-yl)-2,9-diazaspiro[5.5]undecan-1-one], the Ki in experiment [1] amounted to 4.21 µM; in experiment [2], 0.945 µM.
With `COc1ccccc1-n1ccnc1CN1CCCC2(CCN(c3cnc4ccccc4n3)CC2)C1=O` [Example 112, 2-((1-(2-methoxyphenyl)-1H-imidazol-2-yl)methyl)-9-(quinoxalin-2-yl)-2,9-diazaspiro[5.5]undecan-1-one], the figures for the Ki in experiment [1] and in experiment [2] were 3.52 µM and 1.6 µM, respectively.
On the same counts, the results for `Cc1oc(-c2cscn2)nc1CN1CCCC2(CCN(c3cnc4ccccc4n3)CC2)C1=O` [Example 114, 2-((5-methyl-2-(thiazol-4-yl)oxazol-4-yl)methyl)-9-(quinoxalin-2-yl)-2,9-diazaspiro[5.5]undecan-1-one] are 3.79 µM and 0.831 µM.
